For the assay, the system named is ATF6. Kind of assay: ERSE ATF6-luciferase reporter assay (thapsigargin-induced ER stress). The assay is classed as cell-based, human. As to conditions: Homo sapiens, U2OS, thapsigargin-induced ER stress, U2-OS ATF6 luc reporter cells; for inhibition at 1 µM: 1 μM test compound, 8 hr, read-out: Inh. ATF6-Luc @ 1 μM [%]; for IC50: dose-response 30 μM to 1 nM, read-out: IC50 ATF6-Luc reporter. How it is done: Human bone osteosarcoma (U2-OS) cells were obtained from the American Type Culture Collection (ATCC HTB-96, ATCC Manassas, VA) and were cultured with growing medium containing Dulbecco's Modified Eagle's Medium (DMEM) (Cat. No.:SH30023.02, HyClone) supplemented with fetal bovine serum (FBS) 10% (Cat. No.: 16000044, Gibco) and 1% penicillin-streptomycin antibiotic cocktail (Cat. No.: SV30010, Hyclone).
Cignal Lenti ATF6 luc reporter (Qiagen #CLS-6031L) was used to produce a stable cell line in U2-OS cells. […] The number of response elements as well as the intervening sequence between response elements has been experimentally optimized to maximize the signal to noise ratio.
Compounds were prepared as 10 mM stock solutions and stored at −80° C.
U2-OS ATF6 luc reporter cells were thawed 3-4 days and split once prior to assays. […] At the day of experiment, cells were pre-treated for 30 min with 50 μL growing medium containing either vehicle (dimethyl sulfoxide (DMSO)) (Cat. No.: D2650, Sigma-Aldrich) or 1 μM test compound. After the pre-incubation time, 50 μL of a solution containing 0.2 μM thapsigargin (Tg)(an ER stress inducer) was added to respective wells. This Tg solution also contained vehicle or test compounds at 1 μM. The final concentration of DMSO in each well was kept at 0.3%. Plates were incubated for 8 hr in humidified chambers.
Finally, after 8 hr, plates were cooled to room temperature for 10 min prior to luciferase assays. Luciferase reactions were performed using Luciferase Assay System (Cat. No.: E4550, Promega). Briefly, each well was washed with 100 μl of PBS1X and then 20 μl of lysis reagent were added into each well. Plates were shaken for 10 min, then 50 μl of Luciferase Assay Reagent were added to each well and luminescence was read with an integration time of 1 s and a gain of 110 in a Synergy 4 Microplate reader.
For the assessment of the half-maximal inhibitory concentration (IC50) for selected compounds, dose-response assays were performed. Compounds were serially diluted using DMSO starting at 30 μM until 1 nM. The assays were run as described above.
On the technique in general: Reporter assays use an easily measured gene product as a stand-in for the process of interest.

Structures are written as SMILES. Where a name gives a salt, the structure may show the parent alone. Read-outs that look alike come from different tables or passages of the source.

For `CC(c1ccc(C(F)(F)F)cc1C(F)(F)F)n1cc(NC(=O)c2cc(-c3ccccn3)nn2C)cn1` (stereo not drawn) [Compound 112, N-(1-(1-(2,4-bis(trifluoromethyl)phenyl)ethyl)-1H-pyrazol-4-yl)-1-methyl-3-(pyridin-2-yl)-1H-pyrazole-5-carboxamide], the IC50 – broadly, the concentration at which inhibition is half-maximal – was > 10 µM. Also, the inhibition at 1 µM (8 h) was 25 to 50%.
The matching figures for `Cc1nn(-c2ccc(C(F)(F)F)cc2C(F)(F)F)cc1NC(=O)/C=C/c1ccco1` [Compound 87, (E)—N-(1-(2,4-bis(trifluoromethyl)phenyl)-3-methyl-1H-pyrazol-4-yl)-3-(furan-2-yl)acrylamide]: > 10 µM and < 25%.
The matching figures for `C[C@@H](c1ccc(C(F)(F)F)cc1C(F)(F)F)n1cc(NC(=O)c2cc(-c3cccnc3)on2)cn1` [Compound 37, (S)-N-(1-(1-(2,4-bis(trifluoromethyl)phenyl)ethyl)-1H-pyrazol-4-yl)-5-(pyridin-3-yl)isoxazole-3-carboxamide]: > 10 µM and < 25%.
As for `C[C@H](c1ccc(C(F)(F)F)cc1C(F)(F)F)n1cc(NC(=O)c2coc(-c3ccccn3)n2)cn1` [Compound 125, (R)—N-(1-(1-(2,4-bis(trifluoromethyl)phenyl)ethyl)-1H-pyrazol-4-yl)-2-(pyridin-2-yl)oxazole-4-carboxamide], the IC50 was > 10 µM. For the setting “8 h”, the inhibition at 1 µM is < 25%.
The matching figures for `CC(c1ccc(C(F)(F)F)cc1C(F)(F)F)n1cc(NC(=O)c2cnc(-c3ccco3)s2)cn1` (stereo not drawn) [Compound 80, N-(1-(1-(2,4-bis(trifluoromethyl)phenyl)ethyl)-1H-pyrazol-4-yl)-2-(furan-2-yl)thiazole-5-carboxamide]: > 10 µM and < 25%.
`O=C(Nc1cnn(Cc2ccc(C(F)(F)F)cc2C(F)(F)F)c1)c1nc(-c2cccc(F)c2)no1` [Compound 4, N-(1-(2,4-bis(trifluoromethyl)benzyl)-1H-pyrazol-4-yl)-3-(3-fluorophenyl)-1,2,4-oxadiazole-5-carboxamide formate]: the half-maximal inhibitory concentration (IC50) is > 10 µM and the inhibition at 1 µM is < 25%.
Consider `N#Cc1ccc(Cn2cc(NC(=O)c3cc(-c4ccco4)on3)cn2)cc1C(F)(F)F` [Compound 26, N-(1-(4-cyano-3-(trifluoromethyl)benzyl)-1H-pyrazol-4-yl)-5-(furan-2-yl)isoxazole-3-carboxamide], for which the IC50 is > 10 µM. The inhibition at 1 µM (8 h) was < 25%.
For `CC(c1ccc(C(F)(F)F)cc1C(F)(F)F)n1cc(NC(=O)/C=C/c2ccccn2)cn1` (stereo not drawn) [Compound 83, (E)—N-(1-(1-(2,4-bis(trifluoromethyl)phenyl)ethyl)-1H-pyrazol-4-yl)-3-(pyridin-2-yl)acrylamide], the IC50 is > 10 µM. Further, the inhibition at 1 µM (8 h) was < 25%.
For the compound `O=C(Nc1cnn(Cc2c(Cl)cccc2Cl)c1)c1nnc(-c2ccccn2)s1` [Compound 145, N-(1-(2,6-dichlorobenzyl)-1H-pyrazol-4-yl)-5-(pyridin-2-yl)-1,3,4-thiadiazole-2-carboxamide], the IC50 was > 10 µM. The inhibition at 1 µM (8 h) was < 25%.
In the case of `O=C(Nc1cnn(Cc2ccc(C(F)(F)F)cc2C(F)(F)F)c1)c1cncc(-c2ccc(F)cc2)c1` [Compound 20, N-(1-(2,4-bis(trifluoromethyl)benzyl)-1H-pyrazol-4-yl)-5-(4 fluorophenyl)nicotinamide], the IC50 was > 10 µM. In addition, under “8 h”, the inhibition at 1 µM is < 25%.
Consider `CC(c1ccc(C(F)(F)F)cc1C(F)(F)F)n1cc(NC(=O)c2ccc(-c3ccccn3)cn2)cn1` (stereo not drawn) [Compound 82, N-(1-(1-(2,4-bis(trifluoromethyl)phenyl)ethyl)-1H-pyrazol-4-yl)-[2,3′-bipyridine]-6′-carboxamide], for which the IC50 is > 10 µM and the inhibition at 1 µM was < 25%.
With `Cc1nn(-c2ccc(C(F)(F)F)cc2C(F)(F)F)cc1NC(=O)c1cc(-c2ccccn2)on1` [Compound 90, N-(1-(2,4-bis(trifluoromethyl)phenyl)-3-methyl-1H-pyrazol-4-yl)-5-(pyridin-2-yl)isoxazole-3-carboxamide], the IC50 was > 10 µM. Besides, under “8 h”, the inhibition at 1 µM was < 25%.
The matching figures for `C[C@@H](c1ccc(C(F)(F)F)cc1C(F)(F)F)n1cc(NC(=O)c2cnccn2)cn1` [Compound 141, (S)—N-(1-(1-(2,4-bis(trifluoromethyl)phenyl)ethyl)-1H-pyrazol-4-yl)pyrazine-2-carboxamide]: > 10 µM and < 25%.
For the compound `COc1ccccc1-c1cc(C(=O)Nc2cnn(Cc3ccc(C(F)(F)F)cc3C(F)(F)F)c2)no1` [Compound 91, N-(1-(2,4-bis(trifluoromethyl)benzyl)-1H-pyrazol-4-yl)-5-(2-methoxyphenyl)isoxazole-3-carboxamide], the IC50 was > 10 µM and the inhibition at 1 µM was < 25%.
Turning to `C[C@H](c1ccc(C(F)(F)F)cc1C(F)(F)F)n1cc(NC(=O)c2cc(-c3ncccc3Cl)on2)cn1` [Compound 34, (R)-N-(1-(1-(2,4-bis(trifluoromethyl)phenyl)ethyl)-1H-pyrazol-4-yl)-5-(3-chloropyridin-2-yl)isoxazole-3-carboxamide], the IC50 is > 10 µM. Further, under “8 h”, the inhibition at 1 µM is < 25%.
The like results for `Cc1nn(Cc2ccc(C(F)(F)F)cc2C(F)(F)F)cc1NC(=O)c1cc(-c2ccco2)on1` [Compound 92, N-(1-(2,4-bis(trifluoromethyl)benzyl)-3-methyl-1H-pyrazol-4-yl)-5-(furan-2-yl)isoxazole-3-carboxamide] were, in that order, > 10 µM and < 25%.
The matching figures for `O=C(Nc1cnn(C(c2ccc(C(F)(F)F)cc2C(F)(F)F)C2CC2)c1)c1cc(-c2ccccn2)on1` (stereo not drawn) [Compound 33, N-(1-((2,4-bis(trifluoromethyl)phenyl)(cyclopropyl)methyl)-1H-pyrazol-4-yl)-5-(pyridin-2-yl)isoxazole-3-carboxamide]: > 10 µM and < 25%.
Consider `C[C@@H](c1ccc(C(F)(F)F)cc1C(F)(F)F)n1cc(NC(=O)/C=C/c2ccco2)cn1` [Compound 86, (S,E)—N-(1-(1-(2,4-bis(trifluoromethyl)phenyl)ethyl)-1H-pyrazol-4-yl)-3-(furan-2-yl)acrylamide], for which the IC50 was > 10 µM. In addition, where the note is “8 h”, the inhibition at 1 µM is < 25%.
Turning to `CC(C)(O)c1cc(C(=O)Nc2cnn(Cc3ccc(C(F)(F)F)cc3C(F)(F)F)c2)no1` [Compound 2, N-(1-(2,4-bis(trifluoromethyl)benzyl)-1H-pyrazol-4-yl)-5-(2-hydroxypropan-2-yl)isoxazole-3-carboxamide], the IC50 was > 10 µM. For the setting “8 h”, the inhibition at 1 µM was < 25%.
Turning to `Cc1nc(-c2ccccn2)sc1C(=O)Nc1cnn([C@H](C)c2ccc(C(F)(F)F)cc2C(F)(F)F)c1` [Compound 106, (R)—N-(1-(1-(2,4-bis(trifluoromethyl)phenyl)ethyl)-1H-pyrazol-4-yl)-4-methyl-2-(pyridin-2-yl)thiazole-5-carboxamide], the IC50 was > 10 µM. Besides, the inhibition at 1 µM (8 h) was < 25%.
`N#Cc1ccc(Cn2cc(NC(=O)c3cc(-c4ccco4)on3)cn2)cc1` [Compound 25, N-(1-(4-cyanobenzyl)-1H-pyrazol-4-yl)-5-(furan-2-yl)isoxazole-3-carboxamide]: the IC50 was > 10 µM. In addition, the inhibition at 1 µM (8 h) was < 25%.
The matching figures for `Cc1c(C(=O)Nc2cnn(Cc3ccc(C(F)(F)F)cc3C(F)(F)F)c2)noc1-c1ccccn1` [Compound 135, N-(1-(2,4-bis(trifluoromethyl)benzyl)-1H-pyrazol-4-yl)-4-methyl-5-(pyridin-2-yl)isoxazole-3-carboxamide]: > 10 µM and 25 to 50%.
The matching figures for `Cc1c(NC(=O)c2cc(-c3ccccn3)on2)cnn1Cc1ccc(C(F)(F)F)cc1C(F)(F)F` [Compound 30, N-(1-(2,4-bis(trifluoromethyl)benzyl)-5-methyl-1H-pyrazol-4-yl)-5-(pyridin-2-yl)isoxazole-3-carboxamide]: 1 to 10 µM and 25 to 50%.
On to `C[C@H](c1ccc(C(F)(F)F)cc1C(F)(F)F)n1cc(NC(=O)c2nnc(-c3ccccn3)o2)cn1` [Compound 133, (R)—N-(1-(1-(2,4-bis(trifluoromethyl)phenyl)ethyl)-1H-pyrazol-4-yl)-5-(pyridin-2-yl)-1,3,4-oxadiazole-2-carboxamide], for which the IC50 is > 10 µM. Where the note is “8 h”, the inhibition at 1 µM is < 25%.

For the origin of these results see US20240124434A1, “ATF6 INHIBITORS AND USES THEREOF” (Altos Labs, Inc., priority 2018, published 2024).
